The structures appear in SMILES notation.

The source of these data is ChEMBL document CHEMBL1131791 (Bioorg Med Chem Lett, 1999).

The target of experiment [1] is D(3) dopamine receptor (Homo sapiens, UniProt P35462). Put plainly: Ability to displace [3H]spiperone from the cloned human D3 dopamine receptor stably expressed in Chinese hamster ovary (CHO) cells was determined. Format: cell-based.
In experiment [2] the target is D(1A) dopamine receptor (Bos taurus, UniProt Q95136). Description: Ability to displace D1 selective radioligand [3H]-SCH- 23390 in bovine striatal membrane preparations was determined. Format: cell membranes, Striatum.
D(1A) dopamine receptor, sequence (Q95136 whole entry): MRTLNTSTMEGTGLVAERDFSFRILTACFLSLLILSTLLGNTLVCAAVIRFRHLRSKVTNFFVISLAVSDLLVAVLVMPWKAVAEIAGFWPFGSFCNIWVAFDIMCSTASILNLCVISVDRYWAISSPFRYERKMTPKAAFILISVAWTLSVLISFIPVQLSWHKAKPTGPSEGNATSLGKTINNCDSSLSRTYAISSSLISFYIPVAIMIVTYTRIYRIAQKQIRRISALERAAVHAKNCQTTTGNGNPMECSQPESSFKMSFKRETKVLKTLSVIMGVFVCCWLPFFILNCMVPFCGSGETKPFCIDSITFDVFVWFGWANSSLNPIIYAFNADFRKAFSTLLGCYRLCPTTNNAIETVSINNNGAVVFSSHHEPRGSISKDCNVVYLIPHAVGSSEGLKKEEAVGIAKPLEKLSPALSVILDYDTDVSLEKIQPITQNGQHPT
In experiment [3] the target is T1, D(2) dopamine receptor (Homo sapiens, UniProt P14416). Description: Ability to displace [3H]spiperone from the cloned human Dopamine receptor D2S stably expressed in Chinese hamster ovary (CHO) cells was determined. Format: cell-based.
T1 sequence (P14416 whole entry): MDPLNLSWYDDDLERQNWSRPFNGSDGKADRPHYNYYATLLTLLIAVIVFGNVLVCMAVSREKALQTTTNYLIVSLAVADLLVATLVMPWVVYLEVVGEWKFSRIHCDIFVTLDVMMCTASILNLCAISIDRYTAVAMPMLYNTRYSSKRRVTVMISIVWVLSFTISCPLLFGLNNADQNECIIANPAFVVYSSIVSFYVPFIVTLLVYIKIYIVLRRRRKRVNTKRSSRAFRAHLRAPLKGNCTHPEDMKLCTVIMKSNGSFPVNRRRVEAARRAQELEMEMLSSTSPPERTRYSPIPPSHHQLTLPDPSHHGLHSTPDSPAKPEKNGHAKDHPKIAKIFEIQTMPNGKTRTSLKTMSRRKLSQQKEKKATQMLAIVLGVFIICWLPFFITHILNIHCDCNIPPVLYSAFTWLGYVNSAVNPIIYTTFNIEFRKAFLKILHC
The target in experiment [4] is T2, D(4) dopamine receptor (Homo sapiens, UniProt P21917).
T2 sequence (P21917 whole entry): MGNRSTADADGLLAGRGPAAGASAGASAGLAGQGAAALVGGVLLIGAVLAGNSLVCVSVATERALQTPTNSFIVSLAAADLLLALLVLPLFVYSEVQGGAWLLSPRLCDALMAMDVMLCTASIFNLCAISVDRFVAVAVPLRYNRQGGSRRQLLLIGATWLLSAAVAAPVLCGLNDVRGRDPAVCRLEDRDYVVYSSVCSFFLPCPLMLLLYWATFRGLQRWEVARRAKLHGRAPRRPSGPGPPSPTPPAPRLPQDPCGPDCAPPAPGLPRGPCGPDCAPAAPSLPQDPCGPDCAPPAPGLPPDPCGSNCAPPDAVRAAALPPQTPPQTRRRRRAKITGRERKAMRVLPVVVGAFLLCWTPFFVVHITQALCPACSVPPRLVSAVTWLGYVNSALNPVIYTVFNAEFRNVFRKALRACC
Description: Binding affinity of compound towards human cloned Dopamine receptor D4.4 expressed in CHO cells using [3H]spiperone as radioligand. Format: cell-based.

Experiment [5] concerns the target T1, D(2) dopamine receptor. Put plainly: Ability to displace [3H]spiperone from the cloned human Dopamine receptor D2L stably expressed in Chinese hamster ovary (CHO) cells was determined. The class given is cell-based.

D(3) dopamine receptor, sequence (P35462 whole entry): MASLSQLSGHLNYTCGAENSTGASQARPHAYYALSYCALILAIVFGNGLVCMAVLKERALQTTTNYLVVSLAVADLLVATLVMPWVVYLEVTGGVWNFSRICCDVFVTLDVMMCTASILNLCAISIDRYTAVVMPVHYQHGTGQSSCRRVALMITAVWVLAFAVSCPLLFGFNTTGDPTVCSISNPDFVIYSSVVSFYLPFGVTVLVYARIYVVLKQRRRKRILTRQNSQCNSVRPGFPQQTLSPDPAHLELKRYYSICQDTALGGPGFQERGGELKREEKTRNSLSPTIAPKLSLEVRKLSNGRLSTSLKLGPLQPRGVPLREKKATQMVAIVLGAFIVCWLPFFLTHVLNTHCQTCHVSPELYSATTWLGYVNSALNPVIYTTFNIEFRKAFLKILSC

In general, Ki refers to a measure of affinity in units of concentration, obtained from inhibition or displacement. The low end stands for a stronger hold on the target, the high end for a looser hold on the target. With `N#CC(C#N)=Cc1cc(CN2CCN(c3ccc(Cl)cc3)CC2)c[nH]1`, the Ki in experiment [1] was 6.95 µM; in experiment [2], 5.3 µM; in experiment [3], 10.3 µM; in experiment [4], 0.0057 µM; in experiment [5], 7.35 µM.

Consider `N#CC(C#N)=Cc1[nH]ccc1CN1CCN(c2ccccc2)CC1`, for which the Ki in experiment [1] came to 6.95 µM; in experiment [2], 22 µM; in experiment [3] it was 12.8 µM; in experiment [4], 0.16 µM; in experiment [5], 4 µM.

Take `N#CC(C#N)=Cc1cc(CN2CCN(c3ccccc3)CC2)c[nH]1`: the Ki in experiment [1] is 2.35 µM; in experiment [2], 7.2 µM; in experiment [3], 0.975 µM; in experiment [4], 0.0039 µM; in experiment [5], 1.85 µM.

In the case of `N#CC(C#N)=Cc1[nH]ccc1CN1CCN(c2ccc(Cl)cc2)CC1`, the Ki in experiment [1] stood at 7.6 µM; in experiment [2] it was 13.5 µM; in experiment [3], 15 µM; in experiment [4], 0.125 µM; in experiment [5], 8.95 µM.

As to `N#CC(C#N)=Cc1ccc(CN2CCN(c3ccccc3)CC2)[nH]1`, the Ki in experiment [1] is 5.25 µM; in experiment [2], 58 µM; in experiment [3], over 100 µM; in experiment [4], 0.0093 µM; in experiment [5], over 100 µM.

As for `N#CC(C#N)=Cc1ccc(CN2CCN(c3ccc(Cl)cc3)CC2)[nH]1`, the inhibitory constant (Ki) in experiment [1] worked out at 31 µM; in experiment [2], 39.5 µM; in experiment [3], 59 µM; in experiment [4] it was 0.011 µM; in experiment [5], 48.5 µM.
